Measurements from paper PMC12540872 (Nature Communications, 2025).

Biological target: MMOH (hydroxylase of soluble methane monooxygenase, sMMO)
Experiment: isothermal titration calorimetry
Assay type: binding, Methylosinus trichosporium
Conditions: enthalpically driven; surface site near K323 proposed

Work on `O=C1OC2(c3cc(I)c(O)c(I)c3Oc3c2cc(I)c(O)c3I)c2c(Cl)c(Cl)c(Cl)c(Cl)c21` [RB, rose bengal] yielded a Kd of 9.23 ± 1.3 µM.
